Measurements published in patent US20100022514A1, “Heterocycle Compounds and Methods of Use Thereof” (NORVARTIS AG, priority 2006, published 2010).
pIC50: −log10 of the molar value.

What was measured:
[1] = system: p21 promoter (p21-luc) in H1299 cells; experiment: p21 promoter luciferase assay using stably transfected p21-luc in H1299 cells; assay type: cell-based; details: Homo sapiens, NCI-H1299
Description: The cell lines used are derived from H1299 (p21-luc). The growth media used is RPMI 1640, 10% FBS, 1% Pen/Strep and the selection media added is 500 μg/mL Geneticin (Gibco). The buffer used is 5× cell culture lysis buffer (Promega #E1531), stored at −20 C and the Luciferase assay reagent (Promega #E1483) is stored at −70° C. The results of the assay are analyzed using Wallac Software.
To assay Luciferase, the cell culture medium is removed after one day of growth and the flasks are washed once with PBS. The cells are trypsinized in 20 mL of media and the trypsin is neutralized. The cells are counted (0.5-1 mL) on a Vi-Cell XR cell viability analyzer.
Cells are then diluted to a concentration of approximately 5000 cells/200 μL, and 190 μL samples are aliquoted into each well of a Costar white 96-well TC treated white bottom plate with lid (Costar #3917). Plates are then incubated overnight at 37 C.
After a further day, a sample of the compound is added to the wells for assay.
After a further day, the cells are lysed and the luciferase activity of the lysed cells is measured. Each well is washed twice with PBS and 20 μL/well of 1× cell culture lysis buffer (dilute 5× to 1× in distilled water) is added to each well. The microtiter plates are then shaken on a microtiter plate shaker for 20 minutes at room temperate at a speed setting of 5-6. After removal from the shaker, 100 μL of Luciferase Reagent is added to each well. Each microtiter plate is then read on Wallac Envision instrument.

HDAC-1 = target: T1, HDAC-1 (Homo sapiens, UniProt Q13547); experiment: Deacetylase fluorescence assay (HDAC-1); assay type: biochemical; details: read-out: HDAC-1 IC50
T1 construct: made in house
T1 sequence (Q13547 whole entry): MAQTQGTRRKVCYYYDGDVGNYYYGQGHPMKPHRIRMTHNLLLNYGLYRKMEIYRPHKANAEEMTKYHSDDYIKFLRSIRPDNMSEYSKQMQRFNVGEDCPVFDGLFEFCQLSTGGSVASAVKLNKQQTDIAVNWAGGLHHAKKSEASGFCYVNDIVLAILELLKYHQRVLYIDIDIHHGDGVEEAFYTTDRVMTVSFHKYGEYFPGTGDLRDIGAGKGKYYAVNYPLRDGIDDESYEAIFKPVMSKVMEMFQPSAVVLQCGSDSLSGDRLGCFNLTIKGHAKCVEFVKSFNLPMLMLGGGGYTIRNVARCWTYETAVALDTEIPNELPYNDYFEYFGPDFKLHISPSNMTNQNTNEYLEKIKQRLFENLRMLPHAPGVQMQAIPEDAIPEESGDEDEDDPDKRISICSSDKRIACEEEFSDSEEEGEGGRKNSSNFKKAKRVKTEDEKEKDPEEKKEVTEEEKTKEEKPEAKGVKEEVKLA
Description: Conventional methods are used to express deacetylase enzymes and purify them from lysed cells. The following example describes an exemplary procedure, however equivalent procedures are within the scope of the invention.
The cell line used is a derivative of 293 cells overexpressing a fusion of the gene encoding each deacetylase protein with a nucleotide sequence encoding the Flag marker.
Cells are grown in Optimem, 2% Fetal Calf Serum, Pen/Strep. For enzyme preparation, Lysis buffer (IPLS) is 50 mM Tris-HCl, pH 7.5, 120 mM NaCl, 0.5 mM EDTA and 0.5% Nonidet P-40, to which is added one tablet of Protease inhibitors (Roche 11836170001) per 10 ml buffer. Other buffers are IPHS, which is IPLS containing 1 M NaCl; TBS (Sigma #T5912) dilute 10× stock to 1× with dH2O; HD buffer: 10 mM Tris pH 8.0 (1M Stock) 10 mM NaCl (5M Stock), 10% glycerol, and for dialysis: 400 μM PMSF is added (for 2 L: use 8 ml 100 mM Stock). Protease inhibitors (Complete mini, Boehringer Mannheim), 1 tablet/10 mL are added to all buffers but not used in buffers for enzyme assays.
Cells are harvested without using trypsin, and most cells are obtained easily in PBS, with gentle striking or agitation of flasks if necessary. More adherent cells are scraped in PBS. Cells are grown in 500 cm^2 trays, from which about half of the media is aspirated (50 ml total), then cells are scraped in the rest of the media and transferred to a centrifuge tube. Trays are washed with 25 ml cold PBS, scraped again to collect additional cells, and centrifuged at 1500 rpm at 4° C. for 5 min. Cells are washed at least 3 times in PBS to remove growth media, pelleting cells after each wash by centrifugation at 1500 rpm for 5 minutes. After washing, PBS is removed and the resulting cell pellet frozen at −80° C. for storage prior to purification.
For purification, cells are resuspended in lysis buffer, 12 ml of IPLS for cells collected from 10 500 cm trays. Cells are lysed at 4° C. for 3 hrs with rocking, and debris is removed by centrifugation for 20 min at 17,000 rpm in 30 ml centrifuge tubes. If supernatant is not clear afterward, centrifugation of the supernatant is repeated. Protein concentration of the whole cell lysate is determined (generally in the range of about 2-5 mg/ml).
For immunoprecipitation per mg of protein, 15 μL of anti-Flag M2-Agarose Affinity beads (Sigma #A2220) is used. Beads are prepared by washing 3 times with 10× bead volume of PBS and 1 time with IPLS, with centrifugation of the washes at 1500 rpm for 5 min. Whole cell lysate is incubated with the Ab-beads overnight at 4° C. Then beads are centrifuged and washed in 5× volume of the following buffers: three times in IPLS (30 sec at 4° C., spin at 1500 RPM for 5 min); three times in IPHS; and three times in TBS buffer. After each centrifugation, the supernatant is aspirated, leaving the pellet as dry as possible but avoiding sucking up any of the beads.
To elute the enzyme, beads are resuspended in 5× bead volume of TBS with protease inhibitor (Roche 11836170001) 1 tablet/10 mL. Enzyme is eluted with 400 μg/mL Flag peptide (Sigma #F-3290) for 3 hrs at 4° C. on rotator. Then beads are centrifuged, and the supernatant is transferred to a new tube to which is added 1/10 volume of glycerol. The supernatant is transferred to a dialysis cassette (Pierce #66410) using a 3 cc syringe and 18 G needle, and is dialyze sup in 2 L HD buffer for 2 hrs at 4° C. (1 L/hour). The resulting purified deacetylase is divided into aliquots (300 μL/tube), is snap frozen in dry ice bath, and is stored at −80° C.
For assay of deacetylase an assay based on Deacetylase Fluorescent Activity Assay/Drug Discovery Kit (BioMol # AK500) is used, however any equivalent deacetylase assay is within the scope of the invention.
The Fluorescent Assay Buffer (FAB) contains: 25 mM Tris-HCl, pH 8.0, 137 mM NaCl, 2.7 mM KCl and 1 mM MgCl2. […]

Row | SMILES | pIC50 (HDAC-1) | AC50 [1] [nM]
1 | CN(C)c1ccc(C(=O)N2CCc3ccc(/C=C/C(=O)NO)cc3C2)cc1 [Example 53, (E)-3-[2-(4-Dimethylamino-benzoyl)-1,2,3,4-tetrahydro-isoquinolin-7-yl]-N-hydroxy-acrylamide] | > 7.00 | > 1000
2 | O=C(/C=C/c1ccc2c(c1)CCN(Cc1ccccc1)C2)NO [Example 77, (E)-3-(2-Benzyl-1,2,3,4-tetrahydro-isoquinolin-6-yl)-N-hydroxy-acrylamide] | 6.00 to 7.00 | > 1000
3 | Cc1[nH]c2ccccc2c1CCN1CCc2ccc(/C=C/C(=O)NO)cc2CC1 [Example 80, (E)-N-Hydroxy-3-{3-[2-(2-methyl-1H-indol-3-yl)-ethyl]-2,3,4,5-tetrahydro-1H-benzo[d]azepin-7-yl}-acrylamide] | > 7.00 | > 1000
4 | Cc1nn(C)c(C)c1CCN1CCc2ccc(/C=C/C(=O)NO)cc2C1 [Example 50, (E)-N-Hydroxy-3-{2-[2-(1,3,5-trimethyl-1H-pyrazol-4-yl)-ethyl]-1,2,3,4-tetrahydro-isoquinolin-7-yl}-acrylamide] | 6.00 to 7.00 | > 1000
5 | O=C(/C=C/c1ccc2c(c1)CN(CCc1c[nH]c3ccccc13)CC2)NO [Example 36, (E)-N-Hydroxy-3-{2-[2-(1H-indol-3-yl)-ethyl]-1,2,3,4-tetrahydro-isoquinolin-7-yl}-acrylamide] | 6.00 to 7.00 | > 1000
6 | O=C(/C=C/c1ccc2c(c1)CN(Cc1ccccc1)C2)NO [Example 1, (E)-3-(2-Benzyl-2,3-dihydro-1H-isoindol-5-yl)-N-hydroxy-acrylamide] | 6.00 to 7.00 | > 1000
7 | O=C(/C=C/c1ccc2c(c1)CN(C(=O)Cc1ccc(Cl)cc1)CC2)NO [Example 66, (E)-3-{2-[2-(4-Chloro-phenyl)-acetyl]-1,2,3,4-tetrahydro-isoquinolin-7-yl}-N-hydroxy-acrylamide] | > 7.00 | > 1000
8 | Cc1noc(-c2ccccc2)c1CCN1CCc2cc(/C=C/C(=O)NO)ccc2C1 [Example 78, (E)-N-Hydroxy-3-{2-[2-(3-methyl-5-phenyl-isoxazol-4-yl)-ethyl]-1,2,3,4-tetrahydro-isoquinolin-6-yl}-acrylamide] | > 7.00 | > 1000
9 | CN(C)c1ccc(C(=O)N2CCc3cc(/C=C/C(=O)NO)ccc3C2)cc1 [Example 86, (E)-3-[2-(4-Dimethylamino-benzoyl)-1,2,3,4-tetrahydro-isoquinolin-6-yl]-N-hydroxy-acrylamide] | 6.00 to 7.00 | > 1000
10 | Cc1ccc(S(=O)(=O)N2Cc3ccc(/C=C/C(=O)NO)cc3C2)cc1 [Example 8, (E)-N-Hydroxy-3-[2-(toluene-4-sulfonyl)-2,3-dihydro-1H-isoindol-5-yl]-acrylamide] | > 7.00 | > 1000
11 | O=C(CCc1ccc2c(c1)CN(CCC1CCCCC1)CC2)NO [Example 31] | 6.00 to 7.00 | > 1000
12 | COc1cccc(C(=O)N2CCc3ccc(/C=C/C(=O)NO)cc3C2)c1 [Example 59, (E)-N-Hydroxy-3-[2-(3-methoxy-benzoyl)-1,2,3,4-tetrahydro-isoquinolin-7-yl]-acrylamide] | 6.00 to 7.00 | > 1000
13 | Cc1[nH]c2ccccc2c1CC(=O)N1CCc2ccc(/C=C/C(=O)NO)cc2C1 [Example 61, (E)-N-Hydroxy-3-{2-[2-(2-methyl-1H-indol-3-yl)-acetyl]-1,2,3,4-tetrahydro-isoquinolin-7-yl}-acrylamide] | > 7.00 | > 1000

More lines, main results first:

Row | pIC50 (HDAC-1) | SMILES | AC50 [1] [nM]
14 | 6.00 to 7.00 | O=C(/C=C/c1ccc2c(c1)CN(CCC1CCCCC1)CC2)NO [Example 45, (E)-3-[2-(2-Cyclohexyl-ethyl)-1,2,3,4-tetrahydro-isoquinolin-7-yl]-N-hydroxy-acrylamide] | > 1000
15 | 6.00 to 7.00 | COc1ccc(S(=O)(=O)N2CCc3ccc(/C=C/C(=O)NO)cc3C2)cc1 [Example 56, (E)-N-Hydroxy-3-[2-(4-methoxy-benzenesulfonyl)-1,2,3,4-tetrahydro-isoquinolin-7-yl]-acrylamide] | > 1000
16 | 6.00 to 7.00 | O=C(/C=C/c1ccc2c(c1)CCN(S(=O)(=O)c1ccccc1)C2)NO [Example 81, (E)-3-(2-Benzenesulfonyl-1,2,3,4-tetrahydro-isoquinolin-6-yl)-N-hydroxy-acrylamide] | > 1000
17 | > 7.00 | Cc1[nH]c2ccccc2c1CC(=O)N1Cc2ccc(/C=C/C(=O)NO)cc2C1 [Example 25, (E)-N-Hydroxy-3-{2-[2-(2-methyl-1H-indol-3-yl)-acetyl]-2,3-dihydro-1H-isoindol-5-yl}-acrylamide] | > 1000
18 | 6.00 to 7.00 | Cn1cc(CCN2CCc3ccc(/C=C/C(=O)NO)cc3C2)c(-c2ccccc2)n1 [Example 46, (E)-N-Hydroxy-3-{2-[2-(1-methyl-3-phenyl-1H-pyrazol-4-yl)-ethyl]-1,2,3,4-tetrahydro-isoquinolin-7-yl}-acrylamide] | > 1000
19 | > 7.00 | O=C(/C=C/c1ccc2c(c1)CN(C(=O)c1cccs1)C2)NO [Example 18, (E)-N-Hydroxy-3-[2-(thiophene-2-carbonyl)-2,3-dihydro-1H-isoindol-5-yl]-acrylamide] | > 1000
20 | 6.00 to 7.00 | Cc1c(CCN2CCc3ccc(/C=C/C(=O)NO)cc3C2)cnn1-c1ccccc1 [Example 49, (E)-N-Hydroxy-3-{2-[2-(5-methyl-1-phenyl-1H-pyrazol-4-yl)-ethyl]-1,2,3,4-tetrahydro-isoquinolin-7-yl}-acrylamide] | > 1000
21 | > 7.00 | Cc1[nH]c2ccccc2c1CC(=O)N1CCc2ccc(CCC(=O)NO)cc2C1 [Example 62, N-Hydroxy-3-{2-[2-(2-methyl-1H-indol-3-yl)-acetyl]-1,2,3,4-tetrahydro-isoquinolin-7-yl}-propionamide] | > 1000
22 | 6.00 to 7.00 | Cc1nn2ccccc2c1CCN1CCc2ccc(/C=C/C(=O)NO)cc2CC1 [Example 71, (E)-N-Hydroxy-3-{3-[2-(2-methyl-pyrazolo[1,5-a]pyridin-3-yl)-ethyl]-2,3,4,5-tetrahydro-1H-benzo[d]azepin-7-yl}-acrylamide] | > 1000
23 | 6.00 to 7.00 | CN(C)c1ccc(C(=O)N2CCc3cc(CCC(=O)NO)ccc3C2)cc1 [Example 87, 3-[2-(4-Dimethylamino-benzoyl)-1,2,3,4-tetrahydro-isoquinolin-6-yl]-N-hydroxy-propionamide] | > 1000
